Data set [1] can be described thus: Storage stability of trifluoroacetate product fraction solutions (analytical HPLC). Type of data set: physicochemical.
The conditions of data set [2]: Hande 1998; cited from earlier work.
In data set [3] the test system is HT-1080 fibrosarcoma cell line. Put plainly: Tumor cell growth inhibition (SRB), HT-1080. Type of data set: cell-based, human. The following applies: 72-96 h, read-out: IC50 (±S.E.) HT-1080. The source says: (§1) HT-1080 and HT-1080/DR4 (MRP/LRP positive) fibrosarcoma cell lines (1,2) were obtained from Dr. Y. Rustum, Roswell Park Cancer Institute, Buffalo, N.Y. The A121 ovarian cell line (3) was provided by Dr. Kent Crickard, Buffalo General Hospital, Buffalo, N.Y. The MDA435/LCC6-WT and MDR^1 transfected cell lines (4) were provided by Dr. R. Clarke, Lombardi Cancer Center, Georgetown University School of Medicine. Cell lines were propagated as monolayers in RPMI-1640 containing 5% FCS, 5% NuSerum IV, 20 mM HEPES, 2 mM L-glutamine at 37° C. in a 5% CO2 humidified atmosphere.
(§2) Paclitaxel, which was used for comparison purposes and is not a compound of the present invention, was provided by Dr. I. Ojima, SUNY at Stonybrook. […] Paclitaxel was solubilized in 100% DMSO. […] For the second experiment (Experiment 2), less concentrated stock solutions (0.4 mM) of each compound were prepared in sterile H2O acidified with 10% 1 N HCl. […] All compounds were further diluted in RPMI-1640 containing 10 mM HEPES.
(§3) Assessment of cell growth inhibition was determined in 96 well microtiter plates according to the method of Skehan et al., “New Colorimetric Cytotoxicity Assay for Anticancer-Drug Screening, Articles 82(13):1107-1112 (1990). Briefly, cells were plated with 400-1800 cells/well in 96 well plates and incubated at 37° C. 15-18 hr prior to drug addition to allow for cell attachment. Each cell line was exposed to 12 concentrations of compound (a 6 log range), 5 replicate data points per compound concentration. […] Assays were terminated with 100 μl of ice-cold 50% TCA. After 1 hr at 4° C., plates were washed 5 times with tap water to remove TCA, low-molecular-weight metabolites and serum proteins. 50 μl of 0.4% sulforhodamine B (SRB) was added to each well. Following a five minute incubation at room temperature, plates were rinsed 5 times with 0.1% acetic acid and air dried. Bound dye was solubilized with 10 mM Tris Base (pH 10.5) for 5 min on a gyratory shaker. Optical density was measured at 570 nm.
(§4) Data were fit with the Sigmoid-Emax concentration-effect model (N. H. G. Holford and L. B. Scheiner, “Understanding the dose-effect relationship: Clinical applications of pharmacokinetic-pharmacodynamic models,” Clin. Pharmacokin. 6:429-453 (1981)) with nonlinear regression, weighted by the reciprocal of the square of the predicted response. The fitting software was developed at RPCI with Microsoft FORTRAN, and uses Marquardt algorithm (D. W. Marquardt, “An algorithm for least squares estimation of nonlinear parameters,” J. Soc. Ind. Appl. Math. 11:431-441) as adapted by Nash (J. C. Nash, Compact Numerical Method for Computers: Linear Algebra and Function Minimization, New York: John Wiley & Sons, 1979) for the nonlinear regression.

The subject of data set [4] is HT-1080-DR4 doxorubicin selected MDR (MRP/LRP phenotype) fibrosarcoma cell line. Put plainly: Tumor cell growth inhibition (SRB), HT-1080-DR4. Type of data set: cell-based, human. The following applies: for IC50: 72-96 h, read-out: IC50 (±S.E.) HT-1080-DR4; for Resistance ratio (IC50 resistant cell line/IC50 parental line) HT1080/DR4: HT1080/DR4 versus HT-1080, range over experiments.
Text: as §1, §2, §3, §4

Data set [5] deals with A121 ovarian carcinoma cell line. Put plainly: Tumor cell growth inhibition (SRB), A121. Format: cell-based, human. The following applies: 72-96 h, read-out: IC50 (±S.E.) A121.
Text: as §1, §2, §3, §4

Data set [6] relates to LCC6-MDR1 PgP transfected breast carcinoma cell line. Put plainly: cells. The following applies: for Resistance ratio (IC50 resistant cell line/IC50 parental line) LCC6-MDR1: LCC6-MDR1 versus LCC6-WT, range over experiments.
Text: as §1, §2, §3, §4

Data set [7] has as its system LCC6-WT breast carcinoma cell line. Put plainly: Tumor cell growth inhibition (SRB), LCC6-WT. Format: cell-based, human. The following applies: read-out: IC50 (±S.E.) LCC6-WT.
Text: as §1, §2, §3, §4

Data set [8] in a line: Chemical hydrolysis in wet acetonitrile. Type of data set: physicochemical. The following applies: ca. 1 mg/mL in wet acetonitrile, 26 days at room temperature. Here is the method: A sample of solid acetate (Compound 4) was dissolved (ca. 1 mg/mL) in wet acetonitrile (nonanhydrous due to exposure to humid air).
The mark [9] stands for this setting: Experiment 1, TX-001/TX-002 from 4.0 mM stocks.
Where [10] appears, read: Experiment 2, TX-001/TX-002 from 0.4 mM stocks.
[11] abbreviates: 4.0 mM stock solutions that had been stored at 4° C. for 7 days.
The mark [12] stands for this setting: Experiment 1, TX-001/TX-002 from 4.0 mM stocks, 72-96 h.
Setting [13] is: Experiment 2, TX-001/TX-002 from 0.4 mM stocks, 72-96 h.

Read-outs that look alike come from different tables or passages of the source.

As to “2′-Succinamidyl-PEG2-amine-paclitaxel trifluoroacetate [Compound 3]”, in data set [1] (after storage at 8° C. for 16 days), the “average purity of product fraction solutions after storage” value is recorded as 97.4%. The “average purity of product fraction solutions, initial” value in data set [1] (preparative HPLC fraction solutions, before storage) was determined as 98.8%.

As to `COc1cc([C@@H]2c3cc4c(cc3[C@@H](O[C@@H]3O[C@@H]5CO[C@@H](C)O[C@H]5[C@H](O)[C@H]3O)[C@H]3COC(=O)[C@H]23)OCO4)cc(OC)c1O` [Etoposide], in data set [2], the solubility in water result was “nearly insoluble in water”.

As a reminder, the IC50 is the concentration that inhibits the measured activity by half. On to `CC(=O)O.CC(=O)OC1C(=O)C2(C)C(O)CC3OCC3(OC(C)=O)C2C(OC(=O)c2ccccc2)C2(O)CC(OC(=O)C(OC(=O)CCCC(=O)NCCOCCOCCN)C(NC(=O)c3ccccc3)c3ccccc3)C(C)=C1C2(C)C` (stereo not drawn) [TX-002, 2′-Glutaramidyl-PEG2-amine-paclitaxel acetate], for which the IC50 was 0.022 ± 0.0009 µM in data set [3] (setting [9]); 0.049 ± 0.0065 µM in data set [3] (setting [10]); 0.032 ± 0.0015 µM in data set [4] (setting [9]); 0.054 ± 0.0053 µM in data set [4] (setting [10]); 0.048 ± 0.003 µM in data set [5] (setting [9]); 0.171 ± 0.0088 µM in data set [5] (setting [10]). The half-maximal inhibitory concentration (IC50) in data set [6] (read-out: IC50 (±S.E.) LCC6-MDR, 4.0 mM stock solutions that had been stored at 4° C. for 7 days) stood at 0.879 µM; in data set [6] (read-out: IC50 (±S.E.) LCC6-MDR, Experiment 1, TX-001/TX-002 from 4.0 mM stocks, 72-96 h) it was 1.07 ± 0.045 µM; in data set [6] (read-out: IC50 (±S.E.) LCC6-MDR, Experiment 2, TX-001/TX-002 from 0.4 mM stocks, 72-96 h), 1.8 ± 0.168 µM; in data set [7] (setting [11]), 0.016 µM; in data set [7] (setting [12]) it was 0.018 ± 0.0011 µM; in data set [7] (setting [13]), 0.038 ± 0.0046 µM. Further, in data set [4], the “Resistance ratio (IC50 resistant cell line/IC50 parental line) HT1080/DR4” value is 1.1-1.5 fold. Further, the “Resistance ratio (IC50 resistant cell line/IC50 parental line) LCC6-MDR1” value in data set [6] is listed as 47-60 fold.

Consider `CC(=O)O[C@H]1C(=O)[C@@]2(C)[C@H]([C@H](OC(=O)c3ccccc3)[C@]3(O)C[C@H](OC(=O)[C@H](O)[C@@H](NC(=O)c4ccccc4)c4ccccc4)C(C)=C1C3(C)C)[C@]1(OC(C)=O)CO[C@@H]1C[C@@H]2O` [Paclitaxel, reference compound], for which the IC50 in data set [3] (Homo sapiens, HT-1080, Experiment 1, TX-001/TX-002 from 4.0 mM stocks) stood at 0.0045 ± 0.0002 µM; in data set [3] (Homo sapiens, HT-1080, Experiment 2, TX-001/TX-002 from 0.4 mM stocks), 0.0057 ± 0.0003 µM; in data set [4] (Homo sapiens, Experiment 1, TX-001/TX-002 from 4.0 mM stocks), 0.0049 ± 0.0004 µM; in data set [4] (Homo sapiens, Experiment 2, TX-001/TX-002 from 0.4 mM stocks), 0.0077 ± 0.0001 µM; in data set [5] (Homo sapiens, A121, Experiment 1, TX-001/TX-002 from 4.0 mM stocks), 0.011 ± 0.0005 µM; in data set [5] (Homo sapiens, A121, Experiment 2, TX-001/TX-002 from 0.4 mM stocks) it was 0.014 ± 0.0013 µM. The IC50 was determined as 0.434 ± 0.028 µM in data set [6] (Homo sapiens, LCC6MDR, read-out: IC50 (±S.E.) LCC6-MDR, Experiment 1, TX-001/TX-002 from 4.0 mM stocks, 72-96 h); 0.391 ± 0.052 µM in data set [6] (Homo sapiens, LCC6MDR, read-out: IC50 (±S.E.) LCC6-MDR, Experiment 2, TX-001/TX-002 from 0.4 mM stocks, 72-96 h); 0.0047 ± 0.0005 µM in data set [7] (Homo sapiens, Breast carcinoma cell, Experiment 1, TX-001/TX-002 from 4.0 mM stocks, 72-96 h); 0.006 ± 0.002 µM in data set [7] (Homo sapiens, Breast carcinoma cell, Experiment 2, TX-001/TX-002 from 0.4 mM stocks, 72-96 h). In addition, the “Resistance ratio (IC50 resistant cell line/IC50 parental line) HT1080/DR4” value in data set [4] is given as 1.1-1.4 fold. The “Resistance ratio (IC50 resistant cell line/IC50 parental line) LCC6-MDR1” value in data set [6] is 65-92 fold.

Consider `CC(=O)O.CC(=O)OC1C(=O)C2(C)C(O)CC3OCC3(OC(C)=O)C2C(OC(=O)c2ccccc2)C2(O)CC(OC(=O)C(OC(=O)CCC(=O)NCCOCCOCCN)C(NC(=O)c3ccccc3)c3ccccc3)C(C)=C1C2(C)C` (stereo not drawn) [TX-001, 2′-Succinamidyl-PEG2-amine-paclitaxel Acetate], for which the IC50 in data set [3] (setting [9]) was 0.0045 ± 0.0004 µM; in data set [3] (setting [10]) it was 0.019 ± 0.0007 µM; in data set [4] (setting [9]), 0.0089 ± 0.0004 µM; in data set [4] (setting [10]), 0.036 ± 0.0015 µM; in data set [5] (setting [9]), 0.013 ± 0.0005 µM; in data set [5] (setting [10]), 0.037 ± 0.0012 µM. Moreover, the results for the 50% inhibitory concentration (IC50) in data set [7] (setting [11]), in data set [7] (setting [12]) and in data set [7] (setting [13]) were 0.0027 µM, 0.0049 ± 0.0005 µM and 0.013 ± 0.0005 µM, respectively. In addition, the chemical hydrolysis behavior result in data set [8] is recorded as “converted quantitatively into paclitaxel”.
